Read-outs that look alike come from different tables or passages of the source.
Experiments:
[1] = Cytotoxicity assay in Vero E6 cells (neutral red uptake); format: cell-based; conditions: African green monkey
Description: Briefly, 80.000 cells/ml of the tested cell lines were dispensed into 96-well cell culture plates at 100 μl per well Twenty-four hours later, the growth medium was removed and washed with 150 μl of PBS buffer. Two hundred microliters of fresh serum-free medium containing serial diluted compounds was added to each well. After incubating for 2 days at 37° C., the medium was removed and replaced with 100 μl of DMEM medium containing neutral red (40 μg/ml) and incubated for 2 to 4 hours at 37° C. The amount of neutral red taken up was determined by measuring the absorbance at 540 nm using a Multiskan FC Microplate Photometer (Thermo Fisher Scientific) The CC50 values were calculated from best-fit dose-response curves with variable slope in Prism 8.

SARS-CoV-2 PLpro = SARS-CoV-2 PLpro (Severe acute respiratory syndrome coronavirus 2, UniProt P0DTD1); test: FRET-based PLpro enzymatic assay; format: biochemical
Description: The SARS-CoV-2 PL^pro enzymatic assays were carried out as follows. The assay was assembled in 96-well plates with 100 μl of 200 nM PL^Pro protein in PL^Pro reaction buffer [50 mM Hepes (pH 7.5), 0.01% Triton X-100, and 5 mM DTT]. Then, 1 μl of testing compound at various concentrations was added to each well and incubated at 30° C. for 30 minutes. The enzymatic reaction was initiated by adding 1 μl of 1 mM FRET substrate (the final substrate concentration is 10 μM). The reaction was monitored in a Cytation 5 image reader with filters for excitation at 360/40 nm and emission at 460/40 nm at 30° C. for 1 hour. The initial velocity of the enzymatic reaction with and without testing compounds was calculated by linear regression for the first 15 minutes of the kinetic progress curve. The IC50 values were calculated by plotting the initial velocity against various concentrations of testing compounds with a dose-response function in Prism 8 software.

[2] = Vero E6 cells, 2 days at 37° C., neutral red uptake, read-out: Vero CC50
[3] = 200 nM PLpro, 10 μM FRET substrate, 30 min preincubation at 30° C., read-out: IC50

Compound | CC50 at 2 days [1, 2] [µM] | IC50 (SARS-CoV-2 PLpro; [3]) [µM] | CC50 at 2 days [1] [µM] | IC50 (SARS-CoV-2 PLpro) [µM]
Cc1ccc(OCCN(C)C)cc1C(=O)N[C@H](C)c1cc(-c2cnn(CCC#N)c2)nc2ccccc12 [Example 59, (R)—N-(1-(2-(1-(2-cyanoethyl)-1H-pyrazol-4-yl)quinolin-4-yl)ethyl)-5-(2-(dimethylamino)ethoxy)-2-methylbenzamide] | 101 ± 15.2 | > 5 | – | –
Cc1ccc(N2C[C@H]3CN(C)C[C@H]3C2)cc1C(=O)N[C@H](C)c1cc(-c2ccn(C)n2)nc2ccccc12 [Example 103, 2-methyl-N—((R)-1-(2-(1-methyl-1H-pyrazol-3-yl)quinolin-4-yl)ethyl)-5-((3aR,6aS)-5-methylhexahydropyrrolo[3,4-c]pyrrol-2(1H)-yl)benzamide] | 27.3 ± 1.74 | < 0.5 | – | –
Cc1ccc(N2CCN(C)C3(CC3)C2)cc1C(=O)N[C@H](C)c1cc(-c2ccn(C)n2)nc2ccccc12 [Example 101, (R)-2-methyl-N-(1-(2-(1-methyl-1H-pyrazol-3-yl)quinolin-4-yl)ethyl)-5-(4-methyl-4,7-diazaspiro[2.5]octan-7-yl)benzamide] | 40.8 ± 4.27 | 0.5 to 1 | – | –
Cc1ccc(OCCN(C)C)cc1C(=O)N[C@H](C)c1cc(-c2cnn(CC(F)(F)F)c2)nc2ccccc12 [Example 10, (R)-5-(2-(dimethylamino)ethoxy)-2-methyl-N-(1-(2-(1-(2,2,2-trifluoroethyl)-1H-pyrazol-4-yl)quinolin-4-yl)ethyl)benzamide] | 60.8 ± 14.1 | < 0.5 | – | –
Cc1ccc(OCCN(C)C)cc1C(=O)N[C@H](C)c1cc(-c2cnn(CC(N)=O)c2)nc2ccccc12 [Example 24, (R)—N-(1-(2-(1-(2-amino-2-oxoethyl)-1H-pyrazol-4-yl)quinolin-4-yl)ethyl)-5-(2-(dimethylamino)ethoxy)-2-methylbenzamide] | > 250 | < 0.5 | – | –
Cc1ccc(OCCN(C)C)cc1C(=O)N[C@H](C)c1cc(-c2cccc3[nH]ncc23)nc2ccccc12 [Example 50, (R)—N-(1-(2-(1H-indazol-4-yl)quinolin-4-yl)ethyl)-5-(2-(dimethylamino)ethoxy)-2-methylbenzamide] | 59.5 ± 25.4 | < 0.5 | – | –
Cc1ccc(N2CC3CCC(C2)N3C)cc1C(=O)N[C@H](C)c1cc(-c2ccn(C)n2)nc2ccccc12 [Example 102, 2-methyl-N—((R)-1-(2-(1-methyl-1H-pyrazol-3-yl)quinolin-4-yl)ethyl)-5-(8-methyl-3,8-diazabicyclo[3.2.1]octan-3-yl)benzamide] | – | – | 15.2 ± 1.09 | < 0.5
COCCn1cc(-c2cc([C@H](C)NC(=O)c3cc(OCCN(C)C)ccc3C)c3ccccc3n2)cn1 [Example 19, (S)-5-(2-(dimethylamino)ethoxy)-N-(1-(2-(1-(2-methoxyethyl)-1H-pyrazol-4-yl)quinolin-4-yl)ethyl)-2-methylbenzamide] | > 125 | 1 to 5 | – | –
Cc1ccc(OCCN(C)C)cc1C(=O)N[C@H](C)c1cc(N2CCOCC2)nc2ccccc12 [Example 45, (R)-5-(2-(dimethylamino)ethoxy)-2-methyl-N-(1-(2-morpholinoquinoline-4-yl)ethyl)benzamide] | 166 ± 33.2 | 0.5 to 1 | – | –
Cc1ccc(OCCN(C)C)cc1C(=O)N[C@H](C)c1cc(-c2cccs2)nc2ccccc12 [Example 1, (R)-5-(2-(dimethylamino)ethoxy)-2-methyl-N-(1-(2-(thiophen-2-yl)quinolin-4-yl)ethyl)benzamide] | 12.2 ± 0.85 | < 0.5 | – | –
COc1cccc(-c2cc([C@@H](C)NC(=O)c3cc(OCCN(C)C)ccc3C)c3ccccc3n2)c1 [Example 67, (R)-5-(2-(dimethylamino)ethoxy)-N-(1-(2-(3-methoxyphenyl)-quinolin-4-yl)ethyl)-2-methylbenzamide] | 17.2 ± 3.25 | < 0.5 | – | –
Cc1ccc(OCCN(C)C)cc1C(=O)N[C@@H](C)c1cc(-c2cnn(C(F)F)c2)nc2ccccc12 [Example 18] | 47.1 ± 6.43 | 0.5 to 1 | – | –
Cc1ccc(OCCN(C)C)cc1C(=O)N[C@H](C)c1cc(-c2cnn(C(C)(C)C)c2)nc2ccccc12 [Example 65, (R)—N-(1-(2-(1-(tert-butyl)-1H-pyrazol-4-yl)quinolin-4-yl)ethyl)-5-(2-(dimethyl-amino)ethoxy)-2-methylbenzamide] | 19.1 ± 2.75 | < 0.5 | – | –
Cc1ccc(OCCN(C)C)cc1C(=O)N[C@H](C)c1cc(-c2ccc(CN3CCOCC3)s2)nc2ccccc12 [Example 16, (R)-5-(2-(dimethylamino)ethoxy)-2-methyl-N-(1-(2-(5-(morpholinomethyl)thiophen-2-yl)quinolin-4-yl)ethyl)benzamide] | 30.6 ± 10.6 | < 0.5 | – | –
Cc1ccc(OCCN(C)C)cc1C(=O)N[C@H](C)c1cc(Cl)nc2ccccc12 [Example 11, (R)—N-(1-(2-chloroquinolin-4-yl)ethyl)-5-(2-(dimethylamino)-ethoxy)-2-methylbenzamide] | 101 ± 11.3 | 0.5 to 1 | – | –
Cc1ccc(NC2(C)CN(C)C2)cc1C(=O)N[C@H](C)c1cc(-c2cnn(C)c2)nc2ccccc12 [Example 94, (R)-5-((1,3-dimethylazetidin-3-yl)amino)-2-methyl-N-(1-(2-(1-methyl-1H-pyrazol-4-yl)quinolin-4-yl)ethyl)benzamide] | 154 | 1 to 5 | – | –
Cc1ccc(OC[C@@H]2CCN2C)cc1C(=O)NC1(c2cc(-c3cnn(C)c3)nc3ccccc23)CC1 [Example 115, (S)-2-methyl-N-(1-(2-(1-methyl-1H-pyrazol-4-yl)quinolin-4-yl)cyclopropyl)-5-((1-methylazetidin-2-yl)methoxy)benzamide] | 127 ± 7.89 | < 0.5 | – | –
Cc1ccc(OC[C@@H]2CCCN2C)cc1C(=O)N[C@H](C)c1cc(-c2cnn(C)c2)nc2ccccc12 [Example 84, 2-methyl-N—((R)-1-(2-(1-methyl-1H-pyrazol-4-yl)quinolin-4-yl)ethyl)-5-(((S)-1-methylpyrrolidin-2-yl)methoxy)benzamide] | 103 ± 24.4 | < 0.5 | – | –
Cc1ccc(N2CC3CCC(C2)N3C)cc1C(=O)NC1(c2cc(-c3cnn(C)c3)nc3ccccc23)CC1 [Example 112, 2-methyl-N-(1-(2-(1-methyl-1H-pyrazol-4-yl)quinolin-4-yl)cyclopropyl)-5-(8-methyl-3,8-diazabicyclo[3.2.1]octan-3-yl)benzamide] | – | – | 53.8 ± 2.52 | < 0.5
Cc1ccc(N(C)C2(C)CN(C)C2)cc1C(=O)N[C@H](C)c1cc(-c2cnn(C)c2)nc2ccccc12 [Example 93, (R)-5-((1,3-dimethylazetidin-3-yl)(methyl)amino)-2-methyl-N-(1-(2-(1-methyl-1H-pyrazol-4-yl)quinolin-4-yl)ethyl)benzamide] | 129 ± 2.32 | 1 to 5 | – | –
Cc1ccc(N2CCN(C)CC2)cc1C(=O)N[C@H](C)c1cc(-c2ccn(C)n2)nc2ccccc12 [Example 97, (R)-2-methyl-N-(1-(2-(1-methyl-1H-pyrazol-3-yl)quinolin-4-yl)ethyl)-5-(4-methylpiperazin-1-yl)benzamide] | 30.7 ± 2.45 | < 0.5 | – | –
Cc1ccc(OCCN(C)C)cc1C(=O)N[C@H](C)c1cc(-c2ccco2)nc2ccccc12 [Example 4, (R)5-(2-(dimethylamino)ethoxy)-N-(1-(2-(furan-2-yl)quinolin-4-yl)ethyl)-2-methylbenzamide] | 57.3 ± 20.4 | < 0.5 | – | –
Cc1ccc(N2CC[C@@H](N(C)C)C2)cc1C(=O)N[C@H](C)c1cc(-c2ccn(C)n2)nc2ccccc12 [Example 100, 5-((R)-3-(dimethylamino)pyrrolidin-1-yl)-2-methyl-N—((R)-1-(2-(1-methyl-1H-pyrazol-3-yl)quinolin-4-yl)ethyl)benzamide] | 30.6 ± 1.72 | < 0.5 | – | –
Cc1ccc(N2CCC(N(C)C)CC2)cc1C(=O)N[C@H](C)c1cc(-c2cnn(C)c2)nc2ccccc12 [Example 87, (R)-5-(4-(dimethylamino)piperidin-1-yl)-2-methyl-N-(1-(2-(1-methyl-1H-pyrazol-4-yl)quinolin-4-yl)ethyl)benzamide] | 73.8 ± 5.88 | 1 to 5 | – | –
Cc1ccc(OCCN(C)C)cc1C(=O)N[C@H](C)c1cc(-c2ccc3cn[nH]c3c2)nc2ccccc12 [Example 61, (R)—N-(1-(2-(1H-indazol-6-yl)quinolin-4-yl)ethyl)-5-(2-(dimethylamino)ethoxy)-2-methylbenzamide] | 25.7 ± 2.09 | > 5 | – | –
Cc1ccc(OC[C@@H]2C[C@@H](F)CN2C)cc1C(=O)N[C@H](C)c1cc(-c2cnn(C)c2)nc2ccccc12 [Example 85, 5-(((2S,4R)-4-fluoro-1-methylpyrrolidin-2-yl)methoxy)-2-methyl-N—((R)-1-(2-(1-methyl-1H-pyrazol-4-yl)quinolin-4-yl)ethyl)benzamide] | 33.9 ± 3.74 | < 0.5 | – | –

Reference: patent US20240382494A1, “THERAPEUTIC COMPOUNDS” (priority 2023, published 2024)
